As usually defined, the AUC is the area under the concentration-time curve, a measure of exposure.

The text below walks through data of patent publication US8703199B2, “Pharmaceutical compositions of adsorbates of amorphous drug” (Bend Research, Inc., priority 2001, dated 2014).

Molecules are shown by their SMILES. A value given as a limit tells only on which side of the number the result lay.

Type in all cases: physicochemical
Series [1] can be described thus: in vitro dissolution test, microcentrifuge method, Drug 4 in PBS. Also on record: AUC / AUC90: concentration or dose not given beside the values. The procedure: The tubes were placed in a 37° C. temperature-controlled chamber, and 1.8 mL phosphate buffered saline (PBS) at pH 6.5 and 290 mOsm/kg was added. The solutions were quickly mixed using a vortex mixer for about 60 seconds, and then centrifuged at 13,000 G at 37° C. for […]. The resulting supernatant solution was then sampled and diluted 1:5 (by volume) with methanol. Diluted samples were analyzed by high-performance liquid chromatography (HPLC) at a UV absorbance of 245 nm using a Phenomenex Kromasil C4 column and a mobile phase of 45% (0.2% H3PO4)/55% acetonitrile. After sampling, the contents of the tubes were mixed on the vortex mixer and allowed to stand undisturbed at 37° C. until the next sample was taken. Samples were collected at 4, 10, 20, 40, 90, and 1200 minutes. […]
The adsorbate of Example 23 was evaluated in the in vitro dissolution test described in Example 22. In this test, 45 mg of the adsorbate of Example 23 was added to the microcentrifuge tubes used in the test. Samples for this test were collected at 4, 10, 20, 40, 90, and 1200 minutes.

Series [2] in a line: accelerated storage test of physical stability (PXRD).
Method: The stability of Example 1 adsorbate was evaluated in an accelerated storage test. The adsorbate was stored under elevated temperature and humidity conditions to increase the rate of physical changes occurring in the material in order to simulate a longer storage interval in a typical storage environment. Samples of the adsorbate and Control 1B were stored at 40° C./75% relative humidity (RH). Samples were analyzed using a powder X-ray diffraction (PXRD) technique using a Bruker AXS D8 Advance diffractometer as follows. The X-ray tube (KCu, 1.54184 Å) was operated at a voltage of 45 kV and a current of 40 mA with the beam focused through a Göbel mirror and a series of slits into a line focus. Diffractograms were typically collected over the 2□ range of 4° to 40° with a step size of 0.02°/step. Data were collected for a minimum time of 2.4 sec/step. Scans were obtained by holding the tube at a constant angle (to keep the illuminated area of the sample constant) and scanning a scintillation-counter detector fitted with a thin film collimator through 2□. […]
Samples of the adsorbate of Example 9 were assessed for physical stability by storing them for 12 weeks at 50° C./75% RH. […]
The physical stability of the adsorbate of Example 23 was evaluated by storing samples of the adsorbate at 40° C. and 75% relative humidity and periodically withdrawing samples and analyzing them by PXRD.
Series [3] is described as follows: in vitro dissolution test, microcentrifuge method, Drug 3 in 0.5 wt % MFD solution. The method, then: The adsorbate of Example 17 was evaluated in an in vitro dissolution test as in Example 2 using 1.44 mg of the adsorbate of […], or 0.36 mg of crystalline Drug 3 (Control 3) in a microcentrifuge tube with 1.8 ml of 0.5 wt % MFD solution. Samples were analyzed by HPLC at a UV absorbance of 254 nm using a Phenomex ODS 20 column and a mobile phase consisting of 60% 0.02 M KH2PO4(pH 3.0)/40% acetonitrile.
The drug/substrate adsorbate of Example 35 was evaluated in an in vitro dissolution test using the procedure described in Example 18, except that 1.44 mg of the adsorbate, or 0.36 mg of Control 3B, was added to a microcentrifuge tube containing 1.8 mL 0.5 wt % MFD solution at pH 6.5.
The drug/concentration-enhancing polymer/substrate adsorbate of Example 37 was evaluated in an in vitro dissolution test using the procedure described in Example 18, except that 1.96 mg of the adsorbate, or 0.39 mg of Control 3A, was added to a microcentrifuge tube containing 1.8 mL 0.5 wt % MFD solution at pH 6.5.

Series [4] can be described thus: in vitro dissolution test, microcentrifuge method, Drug 2 in PBS (alone or with Pluronic F-127). Also on record: AUC / AUC90: concentration or dose not given beside the values. The settings on record: for AUC / Drug 2 Concentration: PBS pH 6.5. The method, then: The tubes were placed in a 37° C. temperature-controlled chamber, and 1.8 mL phosphate buffered saline (PBS) at pH 6.5 and 290 mOsm/kg was added. The solutions were quickly mixed using a vortex mixer for about 60 seconds, and then centrifuged at 13,000 G at 37° C. for […]. The resulting supernatant solution was then sampled and diluted 1:5 (by volume) with methanol. Diluted samples were analyzed by high-performance liquid chromatography (HPLC) at a UV absorbance of 245 nm using a Phenomenex Kromasil C4 column and a mobile phase of 45% (0.2% H3PO4)/55% acetonitrile. After sampling, the contents of the tubes were mixed on the vortex mixer and allowed to stand undisturbed at 37° C. until the next sample was taken. Samples were collected at 4, 10, 20, 40, 90, and 1200 minutes.
This example illustrates that combining concentration-enhancing polymer with a drug/substrate adsorbate results in improved concentration enhancement. The adsorbate of Example 9, consisting of 25 wt % Drug 2 and 75 wt % CAB-O-SIL M-5P, was evaluated in an in vitro dissolution test using the procedure describe in Example 2, except that 7.2 mg of the adsorbate, or 1.8 mg of Control 2B, was added to a microcentrifuge tube containing 1.8 mL PBS alone, or 1.8 mL PBS with 3.6 mg of the concentration-enhancing polymer polyoxyethylene-polyoxypropylene block copolymer (Pluronic® F-127, available from BASF Corp.) HPLC analysis of Drug 2 was performed as described in Example 7. […]

[5] abbreviates: 1200 min, 0.5 wt % MFD solution.

Consider `COc1ccc2c(c1)c(CC(=O)O)c(C)n2C(=O)c1ccc(Cl)cc1` [Control 4, Indomethacin], for which the AUC in series [1] (0 min) was 0 µg·min/mL; in series [1] (4 min), 630 µg·min/mL; in series [1] (10 min) it was 2,600 min * μg/mL; in series [1] (20 min), 7,300 min * μg/mL; in series [1] (40 min) it was 8,100 min * μg/mL; in series [1] (90 min), 41,700 min * μg/mL. In addition, the AUC in series [1] (1200 min) is on record as 527,700 min * μg/mL. For the same molecule, the “Drug 4 Concentration” value in series [1] (0 min) came out at 0 μgA/mL; in series [1] (4 min), 320 μgA/mL; in series [1] (10 min), 340 μgA/mL; in series [1] (20 min), 610 μgA/mL; in series [1] (40 min), 460 μgA/mL; in series [1] (90 min), 480 μgA/mL. Further, the “Drug 4 Concentration” value in series [1] (1200 min) was 400 μgA/mL. Besides, in series [1] (Drug 4), the AUC90 is on record as 41,700 min * μg/mL.
With `COc1ccc2c(c1)c(CC(=O)O)c(C)n2C(=O)c1ccc(Cl)cc1` [amorphous control, Indomethacin], in series [2] (4 days at 40° C. and 75% relative humidity), the crystallization rate worked out at 20 %/day. Also, the “crystallinity of the drug” value in series [2] (after 4 days of storage at 40° C. and 75% relative humidity, PXRD) is given as “more than 80%”.
As to `O=C1Cc2cc(CCN3CCN(c4nsc5ccccc45)CC3)c(Cl)cc2N1` [Control 3B], the exposure (AUC) worked out at 0 µg·min/mL in series [3] (0 min, 0.5 wt % MFD solution); 0 µg·min/mL in series [3] (4 min, 0.5 wt % MFD solution); 0 µg·min/mL in series [3] (10 min, 0.5 wt % MFD solution); 0 µg·min/mL in series [3] (20 min, 0.5 wt % MFD solution); 100 µg·min/mL in series [3] (40 min, 0.5 wt % MFD solution); 200 µg·min/mL in series [3] (90 min, 0.5 wt % MFD solution). The AUC in series [3] (setting [5]) was 2,400 min * μg/mL. For the same molecule, the “Drug 3 Concentration” value in series [3] (0 min, 0.5 wt % MFD solution) is listed as 0 μgA/mL; in series [3] (4 min, 0.5 wt % MFD solution), 2 μgA/mL; in series [3] (10 min, 0.5 wt % MFD solution) it was 2 μgA/mL; in series [3] (20 min, 0.5 wt % MFD solution), 2 μgA/mL; in series [3] (40 min, 0.5 wt % MFD solution), 2 μgA/mL; in series [3] (90 min, 0.5 wt % MFD solution), 2 μgA/mL. For the same molecule, the “Drug 3 Concentration” value in series [3] (setting [5]) turned out to be 2 μgA/mL. Besides, the AUC90 in series [3] (Drug 3, 0.5% MFD) amounted to 200 µg·min/mL. This molecule registered a C1200 in series [3] (Drug 3, 0.5 wt % MFD solution) of 2 μgA/mL.
As for `CCOC(=O)N1c2ccc(C(F)(F)F)cc2[C@@H](N(Cc2cc(C(F)(F)F)cc(C(F)(F)F)c2)C(=O)OC)C[C@H]1CC` [Control 2B, [2R,4S] 4-[(3,5-bis-trifluoromethyl-benzyl)-methoxycarbonyl-amino]-2-ethyl-6-trifluoromethyl-3,4-dihydro-2H-quinoline-1-carboxylic acid ethyl ester], the AUC is 0 µg·min/mL in series [4] (0 min); below 2 µg·min/mL in series [4] (4 min); below 8 µg·min/mL in series [4] (10 min); below 18 µg·min/mL in series [4] (20 min); below 38 µg·min/mL in series [4] (40 min); below 88 µg·min/mL in series [4] (90 min). In addition, in series [4] (1200 min), the AUC is listed as <1,200 min * μg/mL. Besides, the “Drug 2 Concentration” value in series [4] (0 min), in series [4] (4 min), in series [4] (10 min), in series [4] (20 min), in series [4] (40 min) and in series [4] (90 min) was below 1 μgA/mL each time. Besides, in series [4] (1200 min), the “Drug 2 Concentration” value is reported as below 1 μgA/mL. Besides, in series [4] (Drug 2, PBS), the AUC90 is below 88 µg·min/mL. For the same molecule, the C1200 in series [4] (Drug 2, PBS) is listed as below 1 μgA/mL.
As for `O=C1Cc2cc(CCN3CCN(c4nsc5ccccc45)CC3)c(Cl)cc2N1` [Control 3A], the AUC in series [3] (0 min, 0.5 wt % MFD solution) was found to be 0 µg·min/mL. Besides, the “Drug 3 Concentration” value in series [3] (0 min, 0.5 wt % MFD solution, 0.36 mg crystalline drug added) was 0 μgA/mL; in series [3] (1200 min, 0.5 wt % MFD solution, 0.36 mg crystalline drug added) it was 5 μgA/mL; in series [3] (1200 min, 0.5 wt % MFD solution, 0.39 mg crystalline drug added, pH 6.5), 9 μgA/mL. For the same molecule, the C1200 in series [3] (Drug 3, 0.5 wt % MFD solution) stood at 9 μgA/mL. For the same molecule, the “Cmax,90” value in series [3] (Drug 3, 0.5 wt % MFD solution) stood at 3000 ng/mL.
